16 compounds from PubChem BioAssay (NCI) can be followed below.

Broadly, the TGI is the concentration giving total growth inhibition. Low values mean more potent growth arrest, high ones less potent growth arrest.

Among the test systems are OVCAR-8 ovarian; HL-60(TB) leukemia; HCT-116 colon; NCI-H226 lung; KM12 colon; 786-0 renal; HOP-62 NSCLC; A498 renal; HS 578T breast; TK-10 renal.
What all share (assay): DTP human tumour cell line panel, 48 h

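48-hour exposure; five concentrations; linearly interpolated endpoints. TGI denotes the concentration required for complete inhibition of growth.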 Where only a bound is given, the exact number is not on record here.

Regarding `O=C(N/N=C/c1ccc([N+](=O)[O-])o1)c1ccc(C(=O)N/N=C/c2ccc([N+](=O)[O-])o2)cc1`, the total growth inhibition concentration (TGI) with OVCAR-8 ovarian is 77.9 µM; in the assay with HL-60(TB) leukemia it was 44.4 µM; in the assay on HCT-116 colon it was more than 100 µM; with NCI-H226 lung, more than 100 µM; in the assay with KM12 colon, more than 100 µM; with 786-0 renal, more than 100 µM. The TGI in the assay with HOP-62 NSCLC, with A498 renal and in the assay on HS 578T breast was more than 100 µM throughout.

Turning to `[N-]=[N+]=Nc1c(C=O)c(=O)n(-c2ccccc2)c2ccccc12`, the TGI with HL-60(TB) leukemia was more than 100 µM; with KM12 colon it was more than 100 µM; in the assay on TK-10 renal it was 39.1 µM; in the assay on 786-0 renal, 35 µM; with HOP-62 NSCLC it was more than 100 µM; with A498 renal it was 10.1 µM. Moreover, the TGI in the assay on HS 578T breast was found to be 79.1 µM.

Turning to `O=C1NC(N2CCCCC2)=N/C1=C\c1cccs1`, the TGI in the assay with OVCAR-8 ovarian, in the assay on HL-60(TB) leukemia, in the assay with HCT-116 colon, in the assay with NCI-H226 lung, in the assay on KM12 colon and with TK-10 renal was more than 100 µM throughout. In addition, the TGI with 786-0 renal, in the assay with HOP-62 NSCLC and in the assay with HS 578T breast was more than 100 µM each time.

On to `O=C(Cc1csc(N=Nc2c(O)[nH]c3ccccc23)n1)Nc1ccccc1`, for which the TGI in the assay on OVCAR-8 ovarian was 65.8 µM; in the assay on HL-60(TB) leukemia, 94 µM; in the assay with HCT-116 colon, 50.8 µM; in the assay with KM12 colon, more than 100 µM; in the assay with TK-10 renal it was more than 100 µM; in the assay on 786-0 renal, 34.3 µM. In addition, the TGI is 52.2 µM with HOP-62 NSCLC and more than 100 µM in the assay on A498 renal.

`Cc1ccc(N=N/C(=N/NC(=O)c2cc(Cl)ccc2C(=O)c2ccccc2)c2ccc(N(CCC#N)CCC#N)cc2C)cc1`: the total growth inhibition concentration (TGI) in the assay on OVCAR-8 ovarian is 29.9 µM; with HCT-116 colon, 31.5 µM; in the assay with NCI-H226 lung, 38 µM; in the assay with KM12 colon it was more than 100 µM; in the assay with TK-10 renal, more than 100 µM; in the assay with 786-0 renal, 53.7 µM. Moreover, the concentration for total growth inhibition (TGI) in the assay with HOP-62 NSCLC and with HS 578T breast was more than 100 µM throughout.

Regarding `CCOC(=O)Cc1csc2[n+]1C(=O)/C(=C/c1cccc(OC)c1O)S2`, the TGI in the assay with OVCAR-8 ovarian, with HL-60(TB) leukemia, in the assay with HCT-116 colon, in the assay with NCI-H226 lung, with KM12 colon and in the assay with TK-10 renal was more than 100 µM throughout. The TGI with 786-0 renal and with HOP-62 NSCLC was more than 100 µM each time.

Take `Cc1ccc2c(sc(-c3ccc4c(c3)sc(-c3ccc5c(c3)sc(-c3ccc(N(C)C)cc3)[n+]5C)[n+]4C)[n+]2C)c1S(=O)(=O)O` (tested in a mixture with another compound): the TGI with OVCAR-8 ovarian, in the assay on HL-60(TB) leukemia, with HCT-116 colon, in the assay with KM12 colon, with TK-10 renal and in the assay with 786-0 renal was more than 100 µM each time. Also, the TGI in the assay with A498 renal and with HS 578T breast was more than 100 µM each time.

As for `CC(C)CCC[C@@H](C)C1CCC2[C@@H]3CC=C4C[C@@H](C(=O)NCC[N+](C)(C)CCCS(=O)(=O)[O-])CC[C@]4(C)C3CC[C@@]21C` (stereo partly specified), the TGI came out at 35 µM in the assay on OVCAR-8 ovarian; 28.3 µM in the assay with HL-60(TB) leukemia; 30.9 µM with HCT-116 colon; 37.9 µM in the assay on NCI-H226 lung; 31.5 µM in the assay with KM12 colon; 31.1 µM with 786-0 renal. The compound also displayed a concentration for total growth inhibition (TGI) in the assay with HOP-62 NSCLC of 42.9 µM.

Consider `Cc1c2c(n(CCc3ccccc3)c1C)N(C)N=C(C#N)S2(=O)=O`, for which the TGI in the assay on OVCAR-8 ovarian, in the assay on HCT-116 colon, in the assay with NCI-H226 lung, with KM12 colon, in the assay with TK-10 renal and in the assay with 786-0 renal was more than 100 µM in each case. In the assay with HOP-62 NSCLC, this compound showed a total growth inhibition concentration (TGI) of more than 100 µM.

Take `CCOC(=O)c1nc2ccccc2nc1Nc1ccc(OC)c(OC)c1`: the TGI in the assay on HL-60(TB) leukemia, in the assay on HCT-116 colon, in the assay on KM12 colon, with 786-0 renal, in the assay on HOP-62 NSCLC and in the assay with HS 578T breast was more than 100 µM throughout.

With `C/C=C\C(CC(=O)NCCC1CN(S(=O)(=O)C(F)(F)F)c2ccccc21)CC(=O)OC` (stereo unspecified), the TGI with OVCAR-8 ovarian, in the assay on HCT-116 colon, with KM12 colon, in the assay on 786-0 renal, in the assay with HOP-62 NSCLC and in the assay on A498 renal was more than 100 µM throughout. In the assay on HS 578T breast, the TGI was found to be 72.3 µM.

For `O=c1[nH]c2cc([N+](=O)[O-])ccc2nc1/C(=N/Nc1ccccc1)C(O)c1ccc(C(O)/C(=N\Nc2ccccc2)c2cnc3cc([N+](=O)[O-])ccc3n2)cc1` (stereo unspecified), the TGI in the assay on OVCAR-8 ovarian, in the assay with HL-60(TB) leukemia, with HCT-116 colon, in the assay with KM12 colon, in the assay on TK-10 renal and in the assay with 786-0 renal was more than 100 µM throughout. For the same compound, the total growth inhibition concentration (TGI) in the assay with HOP-62 NSCLC and in the assay on A498 renal was more than 100 µM each time.

For the compound `Cc1nn(C(=O)c2ccncc2)c2c1C(c1ccccc1)SC(N)=N2` (stereo unspecified), the TGI with OVCAR-8 ovarian, with HL-60(TB) leukemia, in the assay on HCT-116 colon, in the assay with NCI-H226 lung, with KM12 colon and in the assay on TK-10 renal was more than 10 µM throughout. For the same compound, the TGI in the assay on 786-0 renal, with HOP-62 NSCLC and in the assay with HS 578T breast was more than 10 µM each time.

Take `CC(C)(C)NC(=O)NC12CC3CC(CC(F)(C3)C1)C2`: the TGI in the assay with OVCAR-8 ovarian, with HL-60(TB) leukemia, in the assay on HCT-116 colon, in the assay with KM12 colon, with TK-10 renal and with 786-0 renal was more than 100 µM in each case. Besides, the total growth inhibition concentration (TGI) in the assay on HOP-62 NSCLC and in the assay with A498 renal was more than 100 µM throughout.

On to `CCOC(=O)Cc1csc2[n+]1C(=O)/C(=C\c1cccc(Cl)c1Cl)S2`, for which the TGI was 35.9 µM in the assay on OVCAR-8 ovarian; 51.5 µM in the assay with HL-60(TB) leukemia; 25.7 µM with HCT-116 colon; 32 µM in the assay on NCI-H226 lung; 33.5 µM in the assay on KM12 colon; 55.6 µM with TK-10 renal. The TGI in the assay on 786-0 renal stood at 31.2 µM; in the assay on HOP-62 NSCLC, 46.9 µM; with HS 578T breast, 89.7 µM.

Consider `O=C(NNC(c1ccccc1)C(F)(F)F)c1ccncc1` (stereo unspecified), for which the TGI in the assay on OVCAR-8 ovarian, with HL-60(TB) leukemia, in the assay on HCT-116 colon, with NCI-H226 lung, in the assay on KM12 colon and in the assay with TK-10 renal was more than 100 µM throughout. Moreover, the TGI in the assay with 786-0 renal and in the assay with HOP-62 NSCLC was more than 100 µM throughout.
